Assays:
3T3-L1 adipocytes = test: Adipogenesis assay (AdipoRed lipid accumulation); assay type: cell-based; details: Mus musculus, 192 h, 3T3-L1, day 8 of differentiation; for IC50: read-out: adipogenesis inhibition IC50
Protocol: Starting from day 0 of differentiation, 3T3-L1 adipocytes were separately treated with different concentrations of either CAME or CAEE (12.5, 25, 50 and 100 μM). Cells treated with vehicle (0.1% DMSO) in proliferation and differentiation media were used as negative controls. The adipogenic compound rosiglitazone (5 μM) was added to some vehicle-treated wells and served as the positive control. At day 8 after initiation of differentiation, intracellular lipid accumulation was quantified as previously described using AdipoRed Reagent according to the manufacturer’s protocol (Martineau et al. [2010]).
Figure 3. (A and B) Anti-adipogenic effect of CAME and CAEE in 3T3-L1 adipocytes. Cells were treated with several concentrations (12.5, 25, 50 and100 μM) of either CAME or CAEE in DMEM containing 10% FBS and the standard adipogenic cocktail (500 μM 3-isobutyl-1-methylxanthine, 500 nM insulin and 10 μM dexamethasone) for 2 days then in DMEM containing 10% FBS and 500 nM insulin starting from days 2-8 of differentiation. This medium was changed every 2 days. (A) On day 8, lipid content was measured by AdipoRed assay. Results represent the means ± SEM of three independent experiments. *Indicates a significant (p ≤ 0.05) difference, **(p < 0.01), ***(p < 0.001) from the vehicle control group. […] Vehicle-treated cells show the presence of lipid droplets. On the other hand, cells treated with the maximum nontoxic concentration (100 μM) of either CAME or CAEE retained the fibroblast-like morphology of pre-adipocytes and were devoid of lipid droplets. (C) CAME and CAEE inhibit pre-adipocyte clonal expansion. Confluent 3T3-L1 pre-adipocytes undergoing clonal expansion in response to differentiation cues were treated with vehicle or 12.5, 25, 50 and 100 μM of either CAME or CAEE for 20 h and incorporation of ^3H-labeled thymidine was measured. Normalized data are presented as mean ± SEM of three independent experiments. **Indicates a significant (p ≤ 0.01) difference, ***(p < 0.001) from the vehicle control group.

GLUT1 = test: Western immunoblot GLUT1 protein content in L6 myotubes; assay type: cell-based, rat; details: 50 μM, 18 h
Protocol: L6 cells myotubes, H4IIE cells and 3T3-L1 adipocytes were treated with either CAME, CAEE (50 μM each) or vehicle (DMSO) for 18 h. Insulin (100 nM) or aminoimidazole carboxamide ribonucleotide (AICAR; 1 mM) were added to some vehicle-treated wells 30 min prior to the end of the treatment and served as the positives controls. Protein content was assayed by the bicinchoninic acid method (Thermo Scientific Pierce Protein Research, Rockford, IL) standardized to bovine serum albumin. Western immunoblotting was performed as described elsewhere (Eid et al. [2010]). […] Immunoreactive bands were visualized by enhanced chemiluminescence and quantified by the Scion Image program (Scion Corporation, Frederick, MD). […]
Figure 1. […] Cells were treated as previously described, cell surface GLUT4myc was detected by an enzyme-linked colorimetric assay. […] Results represent the means ± SEM of three independent experiments, and 3-4 cells were analyzed for each condition per experiment. *Indicates a significant (p ≤ 0.05) difference, **(p < 0.01) from the vehicle control group as assessed by ANOVA. […] Data are expressed as (D) phospho-AMPK/β-actin, (E) GLUT4/β-actin and (F) GLUT1/β-actin and are given as mean ± SEM from 3 experiments. *p < 0.05 indicates a significant difference, **(p < 0.01) from the vehicle control group.

C/EBP-β = test: Western immunoblot C/EBP-β in 3T3-L1 adipocytes; assay type: cell-based, mouse; details: 100 μM (Figure 4 legend)
Protocol: Insulin (100 nM) or aminoimidazole carboxamide ribonucleotide (AICAR; 1 mM) were added to some vehicle-treated wells 30 min prior to the end of the treatment and served as the positives controls. Protein content was assayed by the bicinchoninic acid method (Thermo Scientific Pierce Protein Research, Rockford, IL) standardized to bovine serum albumin. Western immunoblotting was performed as described elsewhere (Eid et al. [2010]). Membranes were incubated overnight with phospho-AMPK, phospho-Akt, GLUT4, GLUT1 and β-actin antibodies (1:1000 dilution, Cell Signalling Technology, Danvers, MA), or with PPAR-γ, SREBP-1 (1:200, Santa Cruze Biotechnology, Santa Cruz, CA), followed by incubation with HRP-coupled secondary antibody (1:10,000) for 1 h. Immunoreactive bands were visualized by enhanced chemiluminescence and quantified by the Scion Image program (Scion Corporation, Frederick, MD). Experiments were repeated on 3 different passages of cells, each passage containing all conditions in parallel.
Figure 4. CAME and CAEE inhibit C/EBP-β and PPAR-γ protein expression through mechanisms implicating AMPK pathway. Shown are representative blots of 3T3-adipocytes treated with the maximum nontoxic concentration (100 μM) of either CAME or CAEE. […] Data are expressed as C/EBP-β/β-actin (D), PPAR-γ/β-actin (E), phospho-Akt/pan-Akt (F) and phospho-AMPK/pan-AMPK (G). […]

C2C12 cells = test system: C2C12 cells; set-up: method as in Eid et al. [2010]; details: cultured C2C12 cells; ref Eid et al. [2010]; cited from earlier work

Row | Structure (SMILES) | IC50 (3T3-L1 adipocytes) [µM] | inhibition at 100 µM (3T3-L1 adipocytes) [%] | effect on GLUT1 protein levels (GLUT1) | protein level of C/EBP-β (C/EBP-β) | toxicity (C2C12 cells)
1 | COC(=O)/C=C/c1ccc(O)c(O)c1 [CAME, CA methyl ester] | 13.8 | 83.3 ± 7.2 | no effect | significantly reduced | no or little toxicity
2 | CCOC(=O)/C=C/c1ccc(O)c(O)c1 [CAEE, caffeic acid ethyl ester] | 12.9 | 97.3 ± 3 | no effect | significantly reduced | no or little toxicity

— publication PMC6130489, “Caffeic acid methyl and ethyl esters exert potential antidiabetic effects on glucose and lipid metabolism in cultured murine insulin-sensitive cells through mechanisms implicating activation of AMPK” (Pharmaceutical Biology, 2017)
